Values of other authors in patent US9427419B2, “Compositions comprising dimethyl sulfoxide (DMSO)” (Abela Pharmaceuticals, Inc., priority 2005, dated 2016).

Legend:
cerebral blood flow = conditions: variety of brain injuries including stroke and head trauma, animals and humans
[1] = system: asymmetric dimethylarginine (ADMA); conditions: continuous intravenous infusion for 120 minutes at 0.125 g/min, angina pectoris
[2] = after oral administration
[3] = system: cerebral blood flow, contused brain; conditions: mice, after experimental traumatic injury
endothelin-1 = conditions: continuous intravenous infusion for 120 minutes at 0.125 g/min, angina pectoris
[4] = higher doses, from 15 to 30 grams daily
[5] = doses of 250 mg/Kg

## C[S+](C)[O-] [DMSO, dimethyl sulfoxide]
Cerebral blood flow
  cerebral blood flow (CBF): increase CBF
Hippocampal neurons
  excitotoxic death of the neurons induced by glutamate: can prevent excitotoxic death
Hippocampal neurons; DMSO concentrations 0.5-[…]
  glutamate responses in hippocampal neurons: inhibit glutamate responses
Hippocampal neurons; rapidly reversible manner
  electrophysiological responses and calcium influx induced by glutamate, NMDA and AMPA: suppresses

## N=C(N)NCCC[C@H](N)C(=O)O [L-arginine]
[1]
  serum levels of asymmetric dimethylarginine (ADMA): lowered the serum levels of asymmetric dimethylarginine (ADMA)
[2]
  time of peak plasma levels: 1 to 2 h
[3]
  cerebral blood flow (CBF) post-injury: increased CBF post-injury
  contusion volume: reduction in contusion volume
endothelin-1
  levels of endothelin-1: reduce the levels of endothelin-1
[4]
  most common adverse reactions: nausea, abdominal cramps and diarrhea

## N[C@@H](CC(=O)O)C(=O)O [L-aspartate]
[5]
  adverse effects: without adverse effects

## NCCCC[C@H](N)C(=O)O [L-lysine]
[5]
  adverse effects: without adverse effects
